Laboratory results as given in US7345033B2, “Carbamoyl-and thiocarbamoyl-phosphonates and pharmaceutical compositions comprising them” (Yissum Research Development Company of the Hebrew …, priority 2003, dated 2008).
Entries after “also recorded” stand apart in the source; their conditions may differ. Where two headings read alike, the source gives them in different places.

Legend:
cancer cells = assay: Matrigel chemoinvasion assay (Boyden chambers); format: cell-based; details: 6 h, read-out: Chemoinvasion % inhibition at 50 μM
Excerpt: Matrigel Chemoinvasion Assay
This assay measures in vitro the potency of the compounds to repress the invasiveness of cancer cells, by inhibiting the MMPs produced by them. The assay uses a reconstituted basement membrane preparation, which is similar to the natural basement membranes that the tumor cells have to cross, in order to disseminate. The compounds examined have been added to the invasion chambers at various concentrations, and the resulted invasion was compared to untreated preparations.
Description of the of the Matrigel Chemoinvasion Experiment
a) The chemoinvasion assays were performed in Boyden chambers. Matrigel (25 μg) was dried on a polycarbonated filter (PVP free, Nucleopore). Fibroblast conditioned medium (obtained from confluent NIH-3T3 cells cultured in serum free DMEM) is used as the chemoattractant. […] The chambers were incubated in a humidified incubator at 37° C. in 5% CO2/95% air atmosphere for 6 h. The cells, which traversed the Matrigel layer and attached to the lower surface of the filter, were stained with Diff Quick (American Scientific Products) and counted.
The various compounds were examined as potential inhibitors at three concentrations: 100 μM, 50 μM and 10 μM.

recombinant MMP-2 = molecular target: T1, recombinant MMP-2 (Homo sapiens, UniProt P08253); assay: MMP inhibitory potency in vitro, succinylated-gelatin colorimetric assay; format: biochemical
T1 construct: purchased
T1 sequence (P08253 110-660): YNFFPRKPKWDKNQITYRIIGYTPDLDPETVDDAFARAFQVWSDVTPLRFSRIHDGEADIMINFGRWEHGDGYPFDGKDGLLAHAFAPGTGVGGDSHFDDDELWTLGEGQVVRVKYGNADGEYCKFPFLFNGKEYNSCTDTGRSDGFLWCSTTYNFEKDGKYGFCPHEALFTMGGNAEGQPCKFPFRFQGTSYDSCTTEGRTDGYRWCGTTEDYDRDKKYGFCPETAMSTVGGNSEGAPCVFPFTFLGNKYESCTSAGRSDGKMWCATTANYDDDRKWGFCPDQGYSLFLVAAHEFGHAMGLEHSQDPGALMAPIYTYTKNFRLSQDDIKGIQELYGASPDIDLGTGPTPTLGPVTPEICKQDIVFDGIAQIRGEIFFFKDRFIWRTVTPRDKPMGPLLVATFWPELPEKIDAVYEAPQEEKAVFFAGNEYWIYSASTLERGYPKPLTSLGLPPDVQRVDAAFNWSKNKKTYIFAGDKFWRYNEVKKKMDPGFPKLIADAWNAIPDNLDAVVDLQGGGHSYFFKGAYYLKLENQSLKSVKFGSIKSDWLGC
Procedure: (§1) Determination of MMP Inhibitory Potency (IC50 Values) in vitro
(§2) The commercially available recombinant MMP-2 and MMP-9 enzymes were incubated with succinylated-gelatin at four different concentrations for 3 h. The examined compounds were added at four to six different concentrations to the recombinant enzymes and the inhibitory potencies were expressed in a colorimetric change measured by an ELISA reader. The inhibitory activity (IC50) was calculated from the kinetic data obtained.

recombinant MMP-9 = molecular target: T2, recombinant MMP-9 (Homo sapiens, UniProt P14780); assay: as above; format: biochemical
T2 construct: purchased
T2 sequence (P14780 94-707, species assumed): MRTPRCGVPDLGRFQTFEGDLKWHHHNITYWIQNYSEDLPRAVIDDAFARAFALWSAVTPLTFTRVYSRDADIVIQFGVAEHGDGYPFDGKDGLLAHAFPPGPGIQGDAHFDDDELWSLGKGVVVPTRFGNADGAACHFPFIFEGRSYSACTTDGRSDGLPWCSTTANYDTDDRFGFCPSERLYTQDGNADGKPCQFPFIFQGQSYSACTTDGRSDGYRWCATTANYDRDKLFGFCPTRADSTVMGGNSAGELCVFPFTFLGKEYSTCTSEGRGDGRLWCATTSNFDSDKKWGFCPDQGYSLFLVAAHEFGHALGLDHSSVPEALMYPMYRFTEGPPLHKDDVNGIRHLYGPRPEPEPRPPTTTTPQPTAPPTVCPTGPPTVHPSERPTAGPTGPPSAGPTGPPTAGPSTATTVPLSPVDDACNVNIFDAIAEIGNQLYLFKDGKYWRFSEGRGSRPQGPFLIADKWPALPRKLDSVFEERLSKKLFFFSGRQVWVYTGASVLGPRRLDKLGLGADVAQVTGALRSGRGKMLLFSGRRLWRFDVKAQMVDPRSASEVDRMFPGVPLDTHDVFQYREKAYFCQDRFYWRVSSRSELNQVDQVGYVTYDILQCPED
Procedure: as §1, §2

Endothelial cells = assay: Endothelial cell capillary tube formation; format: cell-based; details: read-out: Capillary Formation Inhibition % At 50 μM
Excerpt: Endothelial Cell Capillary Tube Formation
Some of the compounds were examined as to their potency to inhibit capillary formation, which is an in vitro model of angiogenesis, an essential step in the development of primary tumor and metastatic lesions. Endothelial cell migration to the newly formed tumor is the initial phase of angiogenesis, and is dependent on MMP expression. By using this assay that measures endothelial cell tube formation, the effects of some carbamoylphosphonates on angiogenesis at concentrations ranging from 100-5 μM were evaluated.
Description of the Endothelial Cell Capillary Tube Formation Experiment
Endothelial cells are harvested by 1 mM EDTA, and added to a Matrigel layer in a 24 well plate at 50,000 cells per well. After attachment, culture media (1 ml) is added and the plate is incubated as a monolayer culture. The plates are analyzed hourly using Hoffinan optics. This assay is used to evaluate inhibitory factors or stimulatory factors on capillary like structure formation, which may be added into the culture media.

murine melanoma = assay: Tumor growth and metastasis in vivo, murine melanoma model; parameters: species or system mice; details: Mus musculus, 504 h
Excerpt: Tumor Growth and Metastasis in Animal Models—in vivo Test
The abilities of the novel carbamoylphosphonates to inhibit the formation of metastatic lesions in vivo were examined in the murine melanoma model both by intraperitoneal (IP) and peroral (PO) administration. […] This is especially important, since oral administration is the most convenient one for the patient, especially for long term chronic treatments such as those envisaged for drugs that are the subject of this application.

MMP-1 = molecular target: T3, MMP-1 (Homo sapiens, UniProt P03956); assay: Selectivity towards different MMPs: MMP-1; format: biochemical; details: Table 2
T3 sequence (P03956 100-469): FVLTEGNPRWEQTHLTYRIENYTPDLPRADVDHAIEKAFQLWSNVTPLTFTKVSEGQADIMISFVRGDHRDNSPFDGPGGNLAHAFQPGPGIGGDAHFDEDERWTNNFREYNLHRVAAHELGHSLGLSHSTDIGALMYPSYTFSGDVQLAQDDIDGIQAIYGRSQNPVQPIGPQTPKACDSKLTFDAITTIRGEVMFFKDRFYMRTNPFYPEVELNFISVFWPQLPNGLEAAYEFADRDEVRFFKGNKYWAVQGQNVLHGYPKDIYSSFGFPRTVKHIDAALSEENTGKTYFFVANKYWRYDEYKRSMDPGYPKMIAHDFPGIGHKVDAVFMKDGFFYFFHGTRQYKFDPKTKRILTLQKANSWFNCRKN

MMP-3 = MMP-3 (Homo sapiens, UniProt P08254); assay: Selectivity towards different MMPs: MMP-3; format: biochemical; details: Table 2
Sequence of MMP-3 (P08254 100-477, species assumed): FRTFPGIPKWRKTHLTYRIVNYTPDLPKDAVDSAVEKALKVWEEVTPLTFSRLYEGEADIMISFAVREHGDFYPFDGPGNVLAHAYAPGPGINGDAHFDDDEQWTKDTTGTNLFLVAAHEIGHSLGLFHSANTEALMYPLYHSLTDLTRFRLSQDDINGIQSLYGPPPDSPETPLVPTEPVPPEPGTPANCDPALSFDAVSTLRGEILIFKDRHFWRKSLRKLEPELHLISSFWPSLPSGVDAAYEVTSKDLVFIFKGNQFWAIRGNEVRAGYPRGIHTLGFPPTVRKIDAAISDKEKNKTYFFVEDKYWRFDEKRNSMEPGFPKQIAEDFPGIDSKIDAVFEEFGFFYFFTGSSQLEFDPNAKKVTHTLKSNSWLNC

MMP-8 = MMP-8 (Homo sapiens, UniProt P22894); assay: Selectivity towards different MMPs: MMP-8; format: biochemical; details: Table 2
Sequence of MMP-8 (P22894 101-467, species assumed): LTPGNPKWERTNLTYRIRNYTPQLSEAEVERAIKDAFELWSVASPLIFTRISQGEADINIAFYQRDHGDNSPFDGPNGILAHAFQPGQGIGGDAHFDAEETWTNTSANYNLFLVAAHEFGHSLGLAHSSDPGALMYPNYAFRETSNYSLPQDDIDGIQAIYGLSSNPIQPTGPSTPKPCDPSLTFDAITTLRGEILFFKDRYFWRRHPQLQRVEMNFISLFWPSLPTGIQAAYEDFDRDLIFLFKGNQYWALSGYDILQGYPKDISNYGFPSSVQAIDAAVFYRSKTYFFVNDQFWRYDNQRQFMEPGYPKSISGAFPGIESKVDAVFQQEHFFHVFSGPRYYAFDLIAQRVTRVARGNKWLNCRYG

[1] = Acute in vivo toxicity in healthy mice; details: daily for two weeks at 50, 250 and 500 mg/kg
Excerpt: Determination of Acute in vivo Toxicity of Representative Carbamoylphosphonates

restenosis = assay: Rabbit model of restenosis (balloon injury, hypercholesterolemic); format: in vivo, New Zealand White rabbits; details: IP, total 70 mg/kg in 5 doses on days -1, +1, +4, +6, +8; after 30 days
Procedure: Rabbit Model of Restenosis
New Zealand White rabbits (Harlan Laboratories, Jerusalem, Israel) weighing 2.5 to 3.5 kg were used in accordance with the guidelines for animal care of the Hebrew University of Jerusalem and National Institutes of Health (USA). Animals were fed an atherogenic diet of 2% cholesterol and 6% peanut oil, starting 30 days before angioplasty. Hypercholesterolemia was ascertained (plasma cholesterol: 1200 mg/dL). Animals were anesthetized by xylazine (7 mg/kg) and ketamine (40 mg/kg). Heparin (200 U/kg), atropine (0.05 mg), and norfloxacin nicotinate (70 mg) were given. […] The control animals received saline. An investigator blinded to the type of experimental group performed the experiments. After euthanasia with pentothal, arteries were perfusion-fixed in situ with 150 mL of 4% formaldehyde solution (pH 7.4), processed for morphometric analysis, and stained with Verhoeff elastin staining, Mayer hematoxylin and eosin, and modified Movat pentachrome. Five animals were used in the experiment and five in the control group.
The marked inhibition of restenosis is unparalleled to other therapeutic modalities in this model (various antiinflammatories or antiproliferative agents). […] It should be noted that the larger lumen in the treatment group was achieved despite the general smaller size of the artery.

[2] = system: Human prostate tumor cells DU145, PC3 or LMCap; assay: Orthotopic prostate tumor model; format: in vivo, mice; details: 50 mg/kg IP daily for 5 weeks, vs untreated control
Procedure: Human prostate tumor cells DU145, PC3 or LMCap transfected with a luciferase gene were injected orthotopically into the prostate of male mice (2×10^6 cells/mouse). […] The mice were monitored for local tumor growth and metastasis formation with a cooled charged coupled device camera (CCCD) sensitive to photons, weekly, starting 14 days after tumor implantation. The emitted photons are converted into a digitalized image proportional to the amount of photons emitted by the tumor cell upon exposure to luciferin.

**Q.** For N[C@@H]1CCCC[C@@H]1NC(=O)P(=O)(O)O (relative stereo) [Compound 11, N-(cis-2-aminocyclohexyl)carbamoylphosphonic acid], which inhibition at 50 µM (cancer cells) is on record?
**A.** The inhibition at 50 µM was 62%.

**Q.** What about the IC50 (recombinant MMP-2) of the same molecule?
**A.** The IC50 was 0.06 µM.

**Q.** And the IC50 (recombinant MMP-9)?
**A.** Its IC50 is 20 µM.

**Q.** What about the inhibition at 50 µM (Endothelial cells) of the same molecule?
**A.** Its inhibition at 50 µM is 72%.

**Q.** What about the inhibition in vivo at 50 mg/kg (murine melanoma; ip, read-out: In vivo murine melanoma % reduction IP) of the same molecule?
**A.** The inhibition in vivo at 50 mg/kg was 77%.

**Q.** And the inhibition in vivo at 50 mg/kg (murine melanoma; po, read-out: In vivo murine melanoma % reduction PO)?
**A.** Its inhibition in vivo at 50 mg/kg is 86%.

**Q.** What about the IC50 (MMP-1) of the same molecule?
**A.** Its IC50 is greater than 100 µM.

**Q.** And the IC50 (MMP-3)?
**A.** The IC50 was greater than 100 µM.

**Q.** What about the IC50 (MMP-8) of the same molecule?
**A.** Its IC50 is greater than 100 µM.

**Q.** And the toxicity [1]?
**A.** The toxicity was “devoid of any toxicity even at 10 times the effective dose, namely at 500 mg/kg”.

**Q.** And the inhibition of restenosis (restenosis)?
**A.** Its inhibition of restenosis is “significant and marked inhibition of restenosis; also recorded: selective in vivo activity against restenosis”.

**Q.** And the “tumor dissemination (metastatic spread)” value [2]?
**A.** Its value is “significantly lower tumor dissemination”.

**Q.** And the “tumor volume (local tumor growth)” value [2]?
**A.** Its value is “significantly lower tumor volume”.
